Data published in patent US8420621B2, “Methods of using gamma cyclodextrin to control blood glucose and insulin secretion” (Abbott Laboratories, priority 2004, dated 2013).

How the values were obtained:
[1] = test system: male fatty Zucker fa/fa rats; experiment: Meal glucose tolerance test, postprandial glycemic response to a carbohydrate challenge; format: in vivo, rat
From the text: The objective of the animal study was to evaluate the postprandial glycemic response of male fatty Zucker fa/fa rats to a carbohydrate challenge consisting of gamma-cyclodextrin or maltodextrin.
Twenty male fatty Zucker fa/fa rats were obtained from Harlan (Indianapolis, Ind., USA). At the time of testing, rats weighed ˜450 grams. Rats were individually housed in microisolator cages on dry bedding and were given ad libitum access to water and non-purified rat diet (pelletted; 8640 Harlan Teklad 22/5 Rodent Diet; Harlan Teklad, Madison, Wis., USA). The housing facility was maintained at 19-23° C., 30-70% relative humidity, and 12-hour light-dark cycle.
Test carbohydrates were evaluated in a randomized crossover design with a 7-day washout period between each meal glucose tolerance test (MGTT). Every rat received each treatment. Rats were routinely fed the non-purified diet. After overnight food deprivation, rats were orally fed test meals as a solution. Rats consumed the test meal within 1 minute. Blood samples were collected from the tail vein and immediately analyzed for plasma glucose by the glucose oxidase method utilizing a Precision G Blood Glucose Testing System (Medisense, Inc., Bedford, Mass., USA) before (0 minutes) and 30, 60, 90, 120, and 180 minutes postprandial. Rats had free access to water throughout the […].
Lodex 15® (maltodextrin) was obtained from Cerestar USA (Hammond, Ind., USA) with a dextrose equivalence (DE) of 15. Gamma-cyclodextrin (Wacker Cavamax W8) was obtained from Wacker Biochem Corp., Müchen, Germany. Carbohydrates were made into 500 g/L solutions with water. Each solution was heated in a microwave for 30 seconds to completely solubilize the carbohydrate solutions 1 hour before testing. Test meal volume was ˜1 mL and was adjusted such that each rat was delivered an equivalent carbohydrate challenge (1.0 g/kg body weight).

healthy adult subjects [2] = settings: single 8 g doses, Koutsou et al. 1999; cited from earlier work
healthy adult subjects [3] = experiment: Clinical study: breath hydrogen test for carbohydrate malabsorption; format: in vivo, human; settings: 3 hours after 50 g oral; p=0.01
Protocol: Upon completion of baseline samples, the subject proceeded to the study site and consumed 16 fl oz of one of the two test beverages in no more than 10 minutes. After consumption of the study beverage, the subject resumed fasting. Time 0 was designated as the time at which the subject began drinking the study beverage. Additional venous blood samples and capillary plasma glucose finger sticks were collected at 15, 30, 45, 60, 90, 120, 150, and 180 […] minutes after the start of the study beverage. Additional breath samples were collected at 1, 2, 3, 4, 5, 6, 7, and 8 (±10 minutes) hours postprandially. Subjects were limited to the consumption of 8 fl oz of water during this three hour blood collection period. Approximately 10 mL of normal saline was injected into the vein after each blood draw in order to keep the line open and to replace the fluid lost from the blood collected.
After the 180-minute blood and breath samples were collected, the subject was allowed to leave the study site and collect the remaining breath samples (hours 4-8) on their own. During the remainder of the breath collection period, the subject was instructed to refrain from sleep and exercise. Subjects were to remain fasting with the exception of an optional one or two 8 fl oz cans of Ensure® Plus. […]
Breath hydrogen was analyzed to determine if the carbohydrate in the study product had been malabsorbed. […]

Breath hydrogen compared to maltodextrin (healthy adult subjects [3]): significantly higher
SMILES: OC[C@H]1O[C@@H]2O[C@H]3[C@H](O)[C@@H](O)[C@@H](O[C@H]4[C@H](O)[C@@H](O)[C@@H](O[C@H]5[C@H](O)[C@@H](O)[C@@H](O[C@H]6[C@H](O)[C@@H](O)[C@@H](O[C@H]7[C@H](O)[C@@H](O)[C@@H](O[C@H]8[C@H](O)[C@@H](O)[C@@H](O[C@H]9[C@H](O)[C@@H](O)[C@@H](O[C@H]1[C@H](O)[C@H]2O)O[C@@H]9CO)O[C@@H]8CO)O[C@@H]7CO)O[C@@H]6CO)O[C@@H]5CO)O[C@@H]4CO)O[C@@H]3CO [Gamma-Cyclodextrin, Gamma-cyclodextrin]
Change from baseline in plasma glucose, Change@ 0 min ([1]; 0 min, 1.0 g/kg body weight oral): 0 | Change from baseline in plasma glucose, Change@ 30 min ([1]; 30 min, 1.0 g/kg body weight oral): 52.0 ± 9.4 | Plasma glucose, 30 min ([1]; 30 min postprandial, 1.0 g/kg body weight oral): 165.6 ± 10.6 | Change from baseline in plasma glucose, Change@ 60 min ([1]; 60 min, 1.0 g/kg body weight oral): 48.1 ± 5.5 | Plasma glucose, 60 min ([1]; 60 min postprandial, 1.0 g/kg body weight oral): 161.8 ± 7.8 | Change from baseline in plasma glucose, Change@ 90 min ([1]; 90 min, 1.0 g/kg body weight oral): 38.0 ± 4.1 | Plasma glucose, 90 min ([1]; 90 min postprandial, 1.0 g/kg body weight oral): 151.6 ± 7.0 | Change from baseline in plasma glucose, Change@ 120 min ([1]; 120 min, 1.0 g/kg body weight oral): 39.4 ± 4.3 | Plasma glucose, 120 min ([1]; 120 min postprandial, 1.0 g/kg body weight oral): 153.1 ± 6.5 | Change from baseline in plasma glucose, Change@ 180 min ([1]; 180 min, 1.0 g/kg body weight oral): 28.9 ± 5.3 | Plasma glucose, 180 min ([1]; 180 min postprandial, 1.0 g/kg body weight oral): 142.6 ± 6.4 | Glucose concentration compared to consumption of maltodextrin ([1]; at 60 and 90 minutes, P<0.05): lower | Plasma glucose, 0 min ([1]; baseline before test meal, 1.0 g/kg body weight oral, mean ± spread): 113.6 ± 4.2 | Glycemic response relative to a comparable amount of Lodex 15 ([1]; oral, 1.0 g/kg, after heat treatment of the solution): blunted glycemic response | Gastrointestinal tolerance (healthy adult subjects [2]): good tolerance
